From ChEMBL document CHEMBL5550160, “Leveraging a rationally designed veliparib-based anilide eliciting anti-leukemic effects for the design of pH-responsive polymer nanoformulation” (Eur J Med Chem, 2024)

Key:
HL-60 = assay: cells; conditions: Homo sapiens
Description: Antiproliferative activity against human HL-60 cells assessed as inhibition of cell growth by MTT assay

PC-3 = assay: cells; assay type: functional, cell-based; conditions: Homo sapiens
Description: Antiproliferative activity against human PC-3 cells assessed as inhibition of cell growth by MTT assay

A549 = assay: cells; assay type: functional, cell-based; conditions: Homo sapiens
Description: Antiproliferative activity against human A549 cells assessed as inhibition of cell growth by MTT assay

FaDu = assay: cells; assay type: functional, cell-based; conditions: Homo sapiens
Description: Antiproliferative activity against human FaDu cells assessed as inhibition of cell growth by MTT assay

K562 = assay: cells; conditions: Homo sapiens
Description: Antiproliferative activity against human K562 cells assessed as inhibition of cell growth by MTT assay

MOLT-4 = assay: cells; assay type: functional, cell-based; conditions: Homo sapiens
Description: Antiproliferative activity against human MOLT-4 cells assessed as inhibition of cell growth by MTT assay

SiHa = assay: cells; assay type: functional, cell-based; conditions: Homo sapiens
Description: Antiproliferative activity against human SiHa cells assessed as inhibition of cell growth by MTT assay

HH = assay: cells; assay type: functional, cell-based; conditions: Homo sapiens
Description: Antiproliferative activity against human HH cells assessed as inhibition of cell growth by MTT assay

MDA-MB-231 = assay: Antiproliferative activity against human MDA-MB-231 cells assessed as inhibition of cell growth by MTT assay; assay type: functional, cell-based
Histone deacetylase 2 = Histone deacetylase 2 (Homo sapiens, UniProt Q92769); assay: Inhibition of HDAC2 (unknown origin)
Sequence of Histone deacetylase 2 (Q92769 whole entry, the tested form may be a part): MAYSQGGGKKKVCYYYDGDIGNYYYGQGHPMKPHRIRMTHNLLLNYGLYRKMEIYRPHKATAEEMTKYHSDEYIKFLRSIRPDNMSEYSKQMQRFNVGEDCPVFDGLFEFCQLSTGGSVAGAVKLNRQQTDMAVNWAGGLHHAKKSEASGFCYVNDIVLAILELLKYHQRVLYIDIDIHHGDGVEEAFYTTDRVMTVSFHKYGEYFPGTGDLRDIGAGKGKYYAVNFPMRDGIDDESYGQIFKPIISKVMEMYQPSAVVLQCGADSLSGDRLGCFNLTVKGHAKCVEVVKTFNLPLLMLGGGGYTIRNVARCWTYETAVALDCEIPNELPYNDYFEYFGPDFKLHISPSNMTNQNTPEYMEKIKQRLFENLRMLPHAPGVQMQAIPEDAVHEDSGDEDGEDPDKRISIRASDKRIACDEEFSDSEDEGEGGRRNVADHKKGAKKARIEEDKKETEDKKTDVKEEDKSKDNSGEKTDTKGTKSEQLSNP

Histone deacetylase 1 = Histone deacetylase 1 (Homo sapiens, UniProt Q13547); assay: Inhibition of HDAC1 (unknown origin) using p53 residues 379 to 382 [RHKK(Ac)] as fluorogenic substrate
Sequence of Histone deacetylase 1 (Q13547 whole entry, the tested form may be a part): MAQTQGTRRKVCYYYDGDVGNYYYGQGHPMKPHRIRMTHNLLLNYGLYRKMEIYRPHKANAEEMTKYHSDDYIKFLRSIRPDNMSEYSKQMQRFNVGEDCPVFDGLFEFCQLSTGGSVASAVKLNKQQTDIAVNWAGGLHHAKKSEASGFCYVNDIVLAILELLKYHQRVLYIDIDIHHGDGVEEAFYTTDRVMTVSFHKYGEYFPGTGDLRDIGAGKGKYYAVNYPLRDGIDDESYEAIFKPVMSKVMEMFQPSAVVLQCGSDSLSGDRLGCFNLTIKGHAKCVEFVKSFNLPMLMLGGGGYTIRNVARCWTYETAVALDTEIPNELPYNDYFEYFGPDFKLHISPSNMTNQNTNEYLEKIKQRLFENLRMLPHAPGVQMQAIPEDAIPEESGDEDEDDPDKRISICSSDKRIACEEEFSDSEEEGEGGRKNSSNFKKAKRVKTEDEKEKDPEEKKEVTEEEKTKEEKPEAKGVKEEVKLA

Histone deacetylase 3 = Histone deacetylase 3 (Homo sapiens, UniProt O15379); assay: Inhibition of HDAC3 (unknown origin) using p53 residues 379 to 382 [RHKK(Ac)] as fluorogenic substrate
Sequence of Histone deacetylase 3 (O15379 whole entry, the tested form may be a part): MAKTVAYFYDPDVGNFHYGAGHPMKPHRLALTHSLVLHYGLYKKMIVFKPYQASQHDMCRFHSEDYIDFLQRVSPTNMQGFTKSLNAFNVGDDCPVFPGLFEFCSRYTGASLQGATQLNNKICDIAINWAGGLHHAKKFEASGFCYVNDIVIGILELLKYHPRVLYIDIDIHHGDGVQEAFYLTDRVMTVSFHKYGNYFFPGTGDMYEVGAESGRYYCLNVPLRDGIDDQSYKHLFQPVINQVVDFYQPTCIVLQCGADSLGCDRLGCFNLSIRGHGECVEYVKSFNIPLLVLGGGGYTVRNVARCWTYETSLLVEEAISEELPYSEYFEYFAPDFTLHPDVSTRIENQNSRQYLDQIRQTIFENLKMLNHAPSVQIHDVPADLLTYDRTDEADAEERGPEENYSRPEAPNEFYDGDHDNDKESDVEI

| Structure (SMILES) | IC50 (HL-60) [µM] | IC50 (PC-3) [µM] | IC50 (A549) [µM] | also measured |
| --- | --- | --- | --- | --- |
| NC(=O)c1cccc2[nH]c(-c3ccc(NC(=O)CCCCC(=O)Nc4ccccc4N)cc3)nc12 | 2.93 | 4.76 | > 10 |  |
| NC(=O)c1cccc2[nH]c(-c3ccc(NC(=O)CCCCCCCC(=O)Nc4ccccc4N)cc3)nc12 | 4.92 | > 10 | > 10 |  |
| NC(=O)c1cccc2[nH]c(-c3ccc(NC(=O)CCCCCCC(=O)Nc4ccccc4N)cc3)nc12 | 1.04 | 3.45 | 2.99 |  |
| NC(=O)c1cccc2[nH]c(-c3ccc(NCc4ccc(C(=O)NO)cc4)cc3)nc12 | 1.23 | 2.34 | 2.31 |  |
| NC(=O)c1cccc2[nH]c(-c3ccc(NC(=O)CCCCCC(=O)NO)cc3)nc12 | 8.76 | 2.32 | 5.41 |  |
| NC(=O)c1cccc2[nH]c(-c3ccc(NC(=O)CCCC(=O)Nc4ccccc4N)cc3)nc12 | 3.21 | > 10 | > 10 |  |
| NC(=O)c1cccc2[nH]c(-c3ccc(NC(=O)CCC(=O)Nc4ccccc4N)cc3)nc12 | 3.75 | > 10 | > 10 |  |
| NC(=O)c1cccc2[nH]c(-c3ccc(NC(=O)CCCCCC(=O)Nc4ccccc4N)cc3)nc12 | 2.43 | > 10 | 4.32 |  |
| NC(=O)c1cccc2[nH]c(-c3ccc(NC(=O)CCCCCCCCC(=O)Nc4ccccc4N)cc3)nc12 | 7.96 | > 10 | > 10 |  |
| C[C@]1(c2nc3c(C(N)=O)cccc3[nH]2)CCCN1 [VELIPARIB] | > 10 | > 10 | > 10 | IC50 (FaDu): > 10 µM; IC50 (K562): > 10 µM; IC50 (MOLT-4): > 10 µM; IC50 (SiHa): > 10 µM; IC50 (HH): > 10 µM; IC50 (MDA-MB-231): > 10 µM |
| NC(=O)c1cccc2[nH]c(-c3ccc(NC(=O)CCCCCCC(=O)NO)cc3)nc12 | 3.21 | 1.87 | 2.11 |  |
| NC(=O)c1cccc2[nH]c(-c3ccc(NC(=O)CCCCCCCCC(=O)NO)cc3)nc12 | > 10 | 8.91 | > 10 |  |
| NC(=O)c1cccc2[nH]c(-c3ccc(NC(=O)CCCC(=O)NO)cc3)nc12 | > 10 | > 10 | > 10 |  |
| Nc1ccccc1NC(=O)c1ccc(CNC(=O)OCc2ccccc2)cc1 | 2.98 | 5.21 | 3.45 | IC50 (Histone deacetylase 2): 613 nM; IC50 (K562): 4.21 µM; IC50 (Histone deacetylase 1): 544 nM; IC50 (MOLT-4): 5.67 µM; IC50 (HH): 4.98 µM; IC50 (Histone deacetylase 3): 624 nM |
| NC(=O)c1cccc2[nH]c(-c3ccc(NC(=O)CCCCCCCC(=O)NO)cc3)nc12 | > 10 | 7.65 | > 10 |  |
| NC(=O)c1cccc2[nH]c(-c3ccc(NCc4ccc(/C=C/C(=O)NO)cc4)cc3)nc12 | 5.99 | 1.99 | 2.03 |  |
| NC(=O)c1cccc2[nH]c(-c3ccc(NCc4ccc(/C=C/C(=O)Nc5ccccc5N)cc4)cc3)nc12 | 3.65 | > 10 | > 10 |  |
| NC(=O)c1cccc2[nH]c(-c3ccc(NC(=O)CCC(=O)NO)cc3)nc12 | 7.89 | > 10 | > 10 |  |
| NC(=O)c1cccc2[nH]c(-c3ccc(NC(=O)CCCCC(=O)NO)cc3)nc12 | 5.45 | 2.44 | 6.98 |  |
